Measurements as given in patent publication US8663669B2, “Pesticide treatment of soils or substrates with sulphur compounds” (Arkema France, priority 2002, dated 2014).

Tests used:
[1] = Diffusion of DMDS into the soil (column of earth, gas chromatography); assay type: physicochemical
Method: The rate of diffusion of DMDS was studied by filling a sealed thermal glass chamber of 3.3 litres and 40 cm in height with 2.5 litres of earth (that is 33 cm) obtained from the Garonne valley (sandy-muddy soil containing 1.6% of organic matter); the DMDS was deposited at the surface of the earth in 2 doses: 300 and 800 kg/ha, that is, considering a disinfection over 30 cm, doses of 100 and 266.6 g/m^3 of soil. There are then measured by gas chromatography, as a function of time (in hours), the concentrations of DMDS in gaseous form (in g/m^3) in the top free volume of the chamber (point A) and at 11 cm (point B), 22 cm (point C) and 33 cm (point D) below the level of the earth by means of 3 openings equipped with sealed septums on the side of the chamber; the variation in the concentration as a function of time for the 4 measurement points is thus obtained, as shown in Table 2 in the case of the 800 kg/ha dose.
The product CT of the concentrations C by the time of measurement T is another essential data which indicates the cumulative doses of DMDS to which are subjected the pathogenic organisms which may be present at the different measurement points. The CT values in gh/m^3 indicated in Table 3 are thus found for the two concentrations tested.

[2] = tested on: termite (Reticulitermes santonensis); assay: Insecticidal in vitro fumigation test on termites; assay type: in vivo; conditions: 24 hours of fumigation, mortality counted at the end of 48 hours; 25° C.
Method: Dead wood infested with termites was collected from the soil on ground occupied by a colony. This dead wood serves as breeding medium. The breeding is maintained at a constant 25° C. and a day/night 12:12 alternation.
The insects are removed in an amount of 2 soldiers per 28 workers.
The tests are carried out in hermetically closed glass jars having a volume of 3 L and containing the insects.
The product to be tested is introduced through a hole 2 mm in diameter with the aid of a micropipette and deposited on a filter paper (2×5 cm: Whatman No. 1) suspended at the centre of the jar where it migrates by capillarity and vaporizes rapidly. The hole is hermetically closed again as quickly as possible.
The jars are placed for 24 hours in an incubator under the same breeding conditions.
At the end of 24 hours, after a few instants of aeration, a first count is made and then the insects are placed again under breeding conditions for another 24 hours. The counting of the mortality is therefore carried out at the end of 48 hours. […] Each test is carried out on a population of 30 to 50 insects and is accompanied by a control without treatment. Several repeats are carried out with doses close to the LC50.

In the case of `CSSC` [DMDS, dimethyl disulphide], the “CT (product of concentrations C by time T)” value ([1]; 300 kg/ha, A (0 cm)) is reported as 3187 gh/m^3, the “CT (product of concentrations C by time T)” value ([1]; 300 kg/ha, B (−11 cm)) is reported as 2737 gh/m^3 and the “CT (product of concentrations C by time T)” value ([1]; 300 kg/ha, C (−22 cm)) is reported as 2753 gh/m^3. The “CT (product of concentrations C by time T)” value ([1]; 300 kg/ha, D (−33 cm)) was 2210 gh/m^3, the “DMDS concentration in gaseous form” value ([1]; 800 kg/ha dose, 0 h, A (0 cm)) was 0 g/m^3 and the “DMDS concentration in gaseous form” value ([1]; 800 kg/ha dose, 0 h, B (−11 cm)) was 0 g/m^3. For the same molecule, the “DMDS concentration in gaseous form” value ([1]; 800 kg/ha dose, 0 h, C (−22 cm)) was 0 g/m^3, the “DMDS concentration in gaseous form” value ([1]; 800 kg/ha dose, 0 h, D (−33 cm)) was 0 g/m^3 and the “Time for the DMDS concentration to be homogeneous in the entire thickness of the column of earth” value ([1]; 800 kg/ha dose, 33 cm of earth) was “approximately 24 hours”. For the same molecule, the “DMDS concentration in gaseous form” value ([1]; 800 kg/ha dose, 1 h, A (0 cm)) was 144.9 g/m^3, the “DMDS concentration in gaseous form” value ([1]; 800 kg/ha dose, 1 h, B (−11 cm)) was 76.6 g/m^3 and the “DMDS concentration in gaseous form” value ([1]; 800 kg/ha dose, 1 h, C (−22 cm)) was 3 g/m^3. For the same molecule, the “DMDS concentration in gaseous form” value ([1]; 800 kg/ha dose, 1 h, D (−33 cm)) was 0 g/m^3, the “DMDS concentration in gaseous form” value ([1]; 800 kg/ha dose, 3 h, A (0 cm)) was 152.7 g/m^3 and the “DMDS concentration in gaseous form” value ([1]; 800 kg/ha dose, 3 h, B (−11 cm)) was 73.9 g/m^3. The “DMDS concentration in gaseous form” value ([1]; 800 kg/ha dose, 3 h, C (−22 cm)) was 5.1 g/m^3, the “DMDS concentration in gaseous form” value ([1]; 800 kg/ha dose, 3 h, D (−33 cm)) was 0.3 g/m^3 and the “DMDS concentration in gaseous form” value ([1]; 800 kg/ha dose, 5 h, A (0 cm)) was 96.3 g/m^3. For the same molecule, the “DMDS concentration in gaseous form” value ([1]; 800 kg/ha dose, 5 h, B (−11 cm)) was 63.8 g/m^3, the “DMDS concentration in gaseous form” value ([1]; 800 kg/ha dose, 5 h, C (−22 cm)) was 48.4 g/m^3 and the “DMDS concentration in gaseous form” value ([1]; 800 kg/ha dose, 5 h, D (−33 cm)) was 21.5 g/m^3. The “DMDS concentration in gaseous form” value ([1]; 800 kg/ha dose, 5.5 h, A (0 cm)) was 123.7 g/m^3, the “DMDS concentration in gaseous form” value ([1]; 800 kg/ha dose, 5.5 h, B (−11 cm)) was 91.4 g/m^3 and the “DMDS concentration in gaseous form” value ([1]; 800 kg/ha dose, 5.5 h, C (−22 cm)) was 58.3 g/m^3. The “DMDS concentration in gaseous form” value ([1]; 800 kg/ha dose, 5.5 h, D (−33 cm)) was 29.4 g/m^3, the “DMDS concentration in gaseous form” value ([1]; 800 kg/ha dose, 24 h, A (0 cm)) was 32.7 g/m^3 and the “DMDS concentration in gaseous form” value ([1]; 800 kg/ha dose, 24 h, B (−11 cm)) was 30.2 g/m^3. The “DMDS concentration in gaseous form” value ([1]; 800 kg/ha dose, 24 h, C (−22 cm)) was 40.1 g/m^3, the “DMDS concentration in gaseous form” value ([1]; 800 kg/ha dose, 24 h, D (−33 cm)) was 34.4 g/m^3 and the “DMDS concentration in gaseous form” value ([1]; 800 kg/ha dose, 96 h, A (0 cm)) was 11.8 g/m^3. For the same molecule, the “DMDS concentration in gaseous form” value ([1]; 800 kg/ha dose, 96 h, B (−11 cm)) was 11.5 g/m^3, the “DMDS concentration in gaseous form” value ([1]; 800 kg/ha dose, 96 h, C (−22 cm)) was 12.9 g/m^3 and the “DMDS concentration in gaseous form” value ([1]; 800 kg/ha dose, 96 h, D (−33 cm)) was 14.6 g/m^3. For the same molecule, the “CT (product of concentrations C by time T)” value ([1]; 800 kg/ha, A (0 cm)) was 4145 gh/m^3, the “CT (product of concentrations C by time T)” value ([1]; 800 kg/ha, B (−11 cm)) was 3327 gh/m^3 and the “CT (product of concentrations C by time T)” value ([1]; 800 kg/ha, C (−22 cm)) was 3276 gh/m^3. For the same molecule, the “CT (product of concentrations C by time T)” value ([1]; 800 kg/ha, D (−33 cm)) was 2809 gh/m^3, the “CT values, order of magnitude” value ([1]; dose of 300 kg/ha) was ~2 500 gh/m^3 and the “CT values, order of magnitude” value ([1]; dose of 800 kg/ha) was ~3 000 gh/m^3. The “LC50 (Probits method)” value [2] was 0.095 g × 24 h/m^3.
